Results from patent US20230270825A1, “STAPLED OLEFIN CO-AGONISTS OF THE GLUCAGON AND GLP-1 RECEPTORS” (Merck Sharp & Dohme LLC, priority 2019, published 2023).
Numbered stars: 1 amine (or outer) side, 2 acyl side, 3 side chain; on linkers, the order of the positions; unused ones are H or OH. Bridge positions count the residues as written; N and C are the ends. Square brackets hold non-standard residues; d marks the D form. Side chains are listed from the residue outwards. Peptide text beside a SMILES is read from it. * marks the point of attachment. Nle(6-ylidene) = O=C([C@H](CCCC=[*:3])N[*:1])[*:2]; S7 = C[C@@](CCCCCC=[*:3])(N[*:1])C(=O)[*:2]; X1 = C[C@](CCCCC=[*:3])(N[*:1])C(=O)[*:2]; γGlu = O=C(O)[C@H](CCC(=O)[*:2])N[*:1]; Palmitoyl = CCCCCCCCCCCCCCCC(=O)*; S5 = C=CCCC[C@](C)(N)C(=O)O; Aib = CC(C)(N)C(=O)O

Biological target: T1, human GCGR (Homo sapiens, UniProt P47871)
T1 construct: expressed in transfected cells; assay-ready frozen cells grown with Blasticidin and Hygromycin
Experiment: cAMP activity assay, cells expressing human GCGR (HitHunter cAMP XS)
Type: cell-based
Conditions: for hGCGR/hGLP1R (hTone): ratio of human GCGR EC50 to human GLP1R EC50; for EC50: cAMP production, 1 hour at room temperature, assay buffer with or without 20% human serum (not stated which)
Procedure: Activity of the peptides at the Glucagon receptor (GCGR) and GLP-1 receptor (GLP1R) was measured in a cAMP activity assay.
Peptides were dissolved in 100% DMSO and serially diluted to generate 10 point titrations. The peptide solutions were then transferred into 384-well assay plates (150 nL/well).
Assay ready frozen cells expressing human GLP1R or human GCGR were suspended in growth media consisting of DMEM medium (GIBCO), 10% FBS (GIBCO), 1x NEAA(GIBCO), 1x P/S (GIBCO), 10ug/ml Blasticidin (GIBCO) and 200 µg/mL Hygromycin (GIBCO). Cells were then diluted in assay buffer consisting of PBS (GIBCO), 7.5% BSA (Perkin Elmer), 100 µM RO 20-1724 (Sigma), with or without 20% human serum (MP Biomedical). The cell suspensions (15 µL) were then added to the assay plates containing the peptide solutions (30,000 cells/well for human GCGR; 10.000 cells/well for human GLP1R). The cells were incubated for 1 hour at room temperature in the dark. Production of cAMP was determined using HitHunter™ cAMPXS kits (DiscoverX) following manufacturer protocol. The plates were incubated for overnight at room temperature in the dark. Luminescence was measured using an EnVision Multilabel plate reader (Perkin Elmer). Native GLP-1 and Glucagon (Bachem) are used as control peptides. EC50 values were calculated using uses a 4 parameter logistic fit based on the Levenberg-Marquardt algorithm.

T1 sequence (P47871 26-477): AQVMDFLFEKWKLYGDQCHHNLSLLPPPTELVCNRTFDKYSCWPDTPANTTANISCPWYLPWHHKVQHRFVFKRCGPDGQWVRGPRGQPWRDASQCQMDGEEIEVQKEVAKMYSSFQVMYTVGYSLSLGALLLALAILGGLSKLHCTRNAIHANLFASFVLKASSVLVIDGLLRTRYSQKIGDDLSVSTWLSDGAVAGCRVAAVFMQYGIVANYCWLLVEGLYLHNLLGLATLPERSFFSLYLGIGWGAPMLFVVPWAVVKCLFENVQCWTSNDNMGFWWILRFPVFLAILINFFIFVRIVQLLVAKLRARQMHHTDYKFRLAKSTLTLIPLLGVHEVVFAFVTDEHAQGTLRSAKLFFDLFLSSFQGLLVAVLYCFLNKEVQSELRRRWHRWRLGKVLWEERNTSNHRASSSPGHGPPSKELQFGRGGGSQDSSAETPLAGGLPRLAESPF

hGCGR/hGLP1R (hTone) | EC50 | SMILES
0.44 | – | CCCCCCCCCCCCCCCC(=O)N[C@@H](CCC(=O)N[C@@H](CCC(=O)NCCCC[C@H](NC(=O)[C@H](CC(=O)O)NC(=O)[C@H](CO)NC(=O)[C@@H](NC(=O)[C@H](Cc1ccccc1)NC(=O)[C@@H](NC(=O)CNC(=O)[C@H](CCC(N)=O)NC(=O)[C@@H](CO)NC(=O)[C@@H](N)Cc1c[nH]cn1)[C@@H](C)O)[C@@H](C)O)C(=O)N[C@@H](CO)C(=O)N[C@@H](CCCCN)C(=O)N[C@@H](Cc1ccc(O)cc1)C(=O)N[C@@H](CC(C)C)C(=O)N[C@@H](CC(=O)O)C(=O)N[C@@H](CCC(=O)O)C(=O)N[C@@H](CCCNC(=N)N)C(=O)N[C@@H](C)C(=O)N[C@@H](C)C(=O)N[C@H]1CCCC=CCCC[C@@H](C(=O)N[C@@H](Cc2c[nH]c3ccccc23)C(=O)N[C@@H](CC(C)C)C(=O)N[C@@H](CC(C)C)C(=O)N[C@@H](CC(=O)O)C(=O)N[C@H](C(N)=O)[C@@H](C)O)NC(=O)[C@H](C(C)C)NC(=O)[C@H](Cc2ccccc2)NC(=O)[C@H](CC(=O)O)NC1=O)C(=O)O)C(=O)O [compound 15] (H-H[dS]QGTFTSDK([γGlu-γGlu-Palmitoyl])SKYLDERAA[Nle(6-ylidene)]DFV[Nle(6-ylidene)]WLLDT-NH2; staple 20-24)
19.11 | 5 nM | CCCCCCCCCCCCCCCC(=O)N[C@@H](CCC(=O)N[C@@H](CCC(=O)NCCCC[C@H](NC(=O)[C@H](CC(=O)O)NC(=O)[C@H](CO)NC(=O)[C@@H](NC(=O)[C@H](Cc1ccccc1)NC(=O)[C@@H](NC(=O)CNC(=O)[C@H](CCC(N)=O)NC(=O)C(C)(C)NC(=O)[C@@H](N)Cc1c[nH]cn1)[C@@H](C)O)[C@@H](C)O)C(=O)N[C@@H](CO)C(=O)N[C@@H](CCCCN)C(=O)N[C@@H](Cc1ccc(O)cc1)C(=O)N[C@@H](CC(C)C)C(=O)N[C@@H](CC(=O)O)C(=O)NC(C)(C)C(=O)N[C@@H](CCCNC(=N)N)C(=O)N[C@@H](C)C(=O)N[C@@H](C)C(=O)N[C@@H](CCC(N)=O)C(=O)N[C@]1(C)CCCCC=CCCCCC[C@@](C)(C(=O)N[C@H](C(=O)N[C@@H](CCCCN)C(=O)N[C@@H](CCC(N)=O)C(=O)O)[C@@H](C)O)NC(=O)[C@H](CCSC)NC(=O)[C@H](CC(C)C)NC(=O)[C@H](Cc2c[nH]c3ccccc23)NC(=O)[C@H](CCC(N)=O)NC(=O)[C@H](C(C)C)NC(=O)[C@H](Cc2ccccc2)NC1=O)C(=O)O)C(=O)O [compound 13] (H-H[Aib]QGTFTSDK([γGlu-γGlu-Palmitoyl])SKYLD[Aib]RAAQ[X1]FVQWLM[S7]TKQ-OH; staple 21-28)
0.77 | – | CC(C)C[C@H](NC(=O)[C@H](Cc1ccc(O)cc1)NC(=O)[C@H](CCCCN)NC(=O)[C@H](CO)NC(=O)[C@H](CCCCN)NC(=O)[C@H](CC(=O)O)NC(=O)[C@H](CO)NC(=O)[C@@H](NC(=O)[C@H](Cc1ccccc1)NC(=O)[C@@H](NC(=O)CNC(=O)[C@H](CCC(N)=O)NC(=O)[C@@H](CO)NC(=O)[C@@H](N)Cc1c[nH]cn1)[C@@H](C)O)[C@@H](C)O)C(=O)N[C@@H](CC(=O)O)C(=O)N[C@@H](CCC(=O)O)C(=O)N[C@@H](CCCNC(=N)N)C(=O)N[C@@H](C)C(=O)N[C@@H](C)C(=O)N[C@@]1(C)CCCC=CCCC[C@@](C)(C(=O)N[C@@H](Cc2c[nH]c3ccccc23)C(=O)N[C@@H](CC(C)C)C(=O)N[C@@H](CC(C)C)C(=O)N[C@@H](CC(=O)O)C(=O)N[C@H](C(N)=O)[C@@H](C)O)NC(=O)[C@H](C(C)C)NC(=O)[C@H](Cc2ccccc2)NC(=O)[C@H](CC(=O)O)NC1=O [compound 19] (H-H[dS]QGTFTSDKSKYLDERAA[S5]DFV[S5]WLLDT-NH2; staple 20-24)
– | 5 nM | CCCCCCCCCCCCCCCC(=O)N[C@@H](CCC(=O)N[C@@H](CCC(=O)NCCCC[C@H](NC(=O)[C@H](CC(=O)O)NC(=O)[C@H](CO)NC(=O)[C@@H](NC(=O)[C@H](Cc1ccccc1)NC(=O)[C@@H](NC(=O)CNC(=O)[C@H](CCC(N)=O)NC(=O)[C@@H](CO)NC(=O)[C@@H](N)Cc1c[nH]cn1)[C@@H](C)O)[C@@H](C)O)C(=O)N[C@@H](CO)C(=O)N[C@]1(C)CCCCC=CCCCCC[C@@](C)(C(=O)N[C@@H](CCC(N)=O)C(=O)N[C@@H](CC(=O)O)C(=O)N[C@@H](Cc2ccccc2)C(=O)N[C@H](C(=O)N[C@@H](CCC(N)=O)C(=O)N[C@@H](Cc2c[nH]c3ccccc23)C(=O)N[C@@H](CC(C)C)C(=O)N[C@@H](CC(C)C)C(=O)N[C@@H](CC(=O)O)C(=O)N[C@H](C(N)=O)[C@@H](C)O)C(C)C)NC(=O)[C@H](C)NC(=O)[C@H](CCCNC(=N)N)NC(=O)[C@H](CCC(=O)O)NC(=O)[C@H](CC(=O)O)NC(=O)[C@H](CC(C)C)NC(=O)[C@H](Cc2ccc(O)cc2)NC1=O)C(=O)O)C(=O)O [compound 7] (H-H[dS]QGTFTSDK([γGlu-γGlu-Palmitoyl])S[X1]YLDERA[S7]QDFVQWLLDT-NH2; staple 12-19)
– | 5 nM | CC(C)C[C@H](NC(=O)[C@H](Cc1ccc(O)cc1)NC(=O)[C@H](CCCCN)NC(=O)[C@H](CO)NC(=O)[C@H](CCCCN)NC(=O)[C@H](CC(=O)O)NC(=O)[C@H](CO)NC(=O)[C@@H](NC(=O)[C@H](Cc1ccccc1)NC(=O)[C@@H](NC(=O)CNC(=O)[C@H](CCC(N)=O)NC(=O)[C@@H](CO)NC(=O)[C@@H](N)Cc1c[nH]cn1)[C@@H](C)O)[C@@H](C)O)C(=O)N[C@@H](CC(=O)O)C(=O)N[C@@H](CCC(=O)O)C(=O)N[C@]1(C)CCCCC=CCCCCC[C@@](C)(C(=O)N[C@@H](Cc2c[nH]c3ccccc23)C(=O)N[C@@H](CC(C)C)C(=O)N[C@@H](CC(C)C)C(=O)N[C@@H](CC(=O)O)C(=O)N[C@H](C(N)=O)[C@@H](C)O)NC(=O)[C@H](C(C)C)NC(=O)[C@H](Cc2ccccc2)NC(=O)[C@H](CC(=O)O)NC(=O)[C@H](CCC(N)=O)NC(=O)[C@H](C)NC(=O)[C@H](C)NC1=O [compound 9] (H-H[dS]QGTFTSDKSKYLDE[X1]AAQDFV[S7]WLLDT-NH2; staple 17-24)
1.42 | – | CC(C)C[C@H](NC(=O)[C@H](Cc1ccc(O)cc1)NC(=O)[C@H](CCCCN)NC(=O)[C@H](CO)NC(=O)[C@H](CCCCN)NC(=O)[C@H](CC(=O)O)NC(=O)[C@H](CO)NC(=O)[C@@H](NC(=O)[C@H](Cc1ccccc1)NC(=O)[C@@H](NC(=O)CNC(=O)[C@H](CCC(N)=O)NC(=O)[C@@H](CO)NC(=O)[C@@H](N)Cc1c[nH]cn1)[C@@H](C)O)[C@@H](C)O)C(=O)N[C@@H](CC(=O)O)C(=O)N[C@@H](CCC(=O)O)C(=O)N[C@@H](CCCNC(=N)N)C(=O)N[C@@H](C)C(=O)N[C@@H](C)C(=O)N[C@H]1CCCC=CCCC[C@@H](C(=O)N[C@@H](Cc2c[nH]c3ccccc23)C(=O)N[C@@H](CC(C)C)C(=O)N[C@@H](CC(C)C)C(=O)N[C@@H](CC(=O)O)C(=O)N[C@H](C(N)=O)[C@@H](C)O)NC(=O)[C@H](C(C)C)NC(=O)[C@H](Cc2ccccc2)NC(=O)[C@H](CC(=O)O)NC1=O [compound 17] (H-H[dS]QGTFTSDKSKYLDERAA[Nle(6-ylidene)]DFV[Nle(6-ylidene)]WLLDT-NH2; staple 20-24)
